Data published in article PMC5584250, “Identification of deubiquitinase targets of isothiocyanates using SILAC-assisted quantitative mass spectrometry” (Oncotarget, 2017).

How the values were obtained:
[1] = molecular target: T1, USP1 (Homo sapiens, UniProt O94782); assay: K63-linked di-ubiquitin gel-based hydrolysis assay with purified USP1/UAF1; also probe labeling in cells and SILAC-MS; type: biochemical
T1 construct: recombinant human His6-USP1/UAF1 complex; with UAF1
From the text: K63-linked di-ubiquitin gel-based hydrolysis assay with purified USP1/UAF1; also probe labeling in cells and SILAC-MS on USP1 | hydrolysis of di-Ub by purified USP1 in complex with its activator UAF1 ... Dose dependent inhibition was observed

[2] = molecular target: T2, VCPIP1 (Homo sapiens, UniProt Q96JH7); assay: SILAC-MS competitive activity profiling (biotin-Ub-PA/VME) in HeLa lysate, […] PEITC; type: cell-based
T2 sequence (Q96JH7 1-1222): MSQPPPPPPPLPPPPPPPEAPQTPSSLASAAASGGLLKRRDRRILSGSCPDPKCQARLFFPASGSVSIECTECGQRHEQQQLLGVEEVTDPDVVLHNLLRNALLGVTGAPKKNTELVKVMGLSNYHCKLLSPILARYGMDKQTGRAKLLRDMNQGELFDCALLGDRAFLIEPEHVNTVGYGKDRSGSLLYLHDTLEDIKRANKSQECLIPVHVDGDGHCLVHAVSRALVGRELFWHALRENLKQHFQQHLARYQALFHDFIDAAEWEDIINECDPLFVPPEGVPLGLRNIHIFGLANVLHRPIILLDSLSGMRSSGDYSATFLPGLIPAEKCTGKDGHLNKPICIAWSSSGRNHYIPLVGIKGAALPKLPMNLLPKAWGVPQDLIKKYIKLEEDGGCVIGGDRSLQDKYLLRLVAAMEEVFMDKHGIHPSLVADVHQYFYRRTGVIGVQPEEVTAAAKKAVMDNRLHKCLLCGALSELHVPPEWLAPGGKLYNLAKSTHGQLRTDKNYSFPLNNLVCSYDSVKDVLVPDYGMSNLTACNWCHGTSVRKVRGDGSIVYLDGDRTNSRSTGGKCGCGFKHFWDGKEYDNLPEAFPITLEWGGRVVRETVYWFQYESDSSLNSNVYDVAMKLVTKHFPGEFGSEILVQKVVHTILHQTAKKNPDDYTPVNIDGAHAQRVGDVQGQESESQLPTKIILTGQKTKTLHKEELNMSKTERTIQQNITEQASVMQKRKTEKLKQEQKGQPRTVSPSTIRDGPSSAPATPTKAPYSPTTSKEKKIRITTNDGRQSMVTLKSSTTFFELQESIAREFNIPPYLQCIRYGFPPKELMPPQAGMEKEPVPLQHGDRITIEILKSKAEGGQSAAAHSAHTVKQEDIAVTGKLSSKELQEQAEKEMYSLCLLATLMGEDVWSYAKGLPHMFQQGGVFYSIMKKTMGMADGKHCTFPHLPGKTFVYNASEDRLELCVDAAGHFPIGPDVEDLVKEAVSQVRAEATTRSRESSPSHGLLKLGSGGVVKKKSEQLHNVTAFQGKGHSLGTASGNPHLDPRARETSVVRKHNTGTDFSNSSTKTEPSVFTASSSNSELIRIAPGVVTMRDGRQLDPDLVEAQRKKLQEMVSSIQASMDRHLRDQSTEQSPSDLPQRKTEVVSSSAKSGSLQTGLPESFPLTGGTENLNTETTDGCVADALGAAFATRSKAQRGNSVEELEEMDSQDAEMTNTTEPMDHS

[3] = molecular target: T3, USP3 (Homo sapiens, UniProt Q9Y6I4); assay: Biotin-Ub-PA/VME activity-probe labeling with immunoblot after treatment of HEK293T cells; SILAC-MS in HeLa lysate; type: cell-based
T3 sequence (Q9Y6I4 1-520): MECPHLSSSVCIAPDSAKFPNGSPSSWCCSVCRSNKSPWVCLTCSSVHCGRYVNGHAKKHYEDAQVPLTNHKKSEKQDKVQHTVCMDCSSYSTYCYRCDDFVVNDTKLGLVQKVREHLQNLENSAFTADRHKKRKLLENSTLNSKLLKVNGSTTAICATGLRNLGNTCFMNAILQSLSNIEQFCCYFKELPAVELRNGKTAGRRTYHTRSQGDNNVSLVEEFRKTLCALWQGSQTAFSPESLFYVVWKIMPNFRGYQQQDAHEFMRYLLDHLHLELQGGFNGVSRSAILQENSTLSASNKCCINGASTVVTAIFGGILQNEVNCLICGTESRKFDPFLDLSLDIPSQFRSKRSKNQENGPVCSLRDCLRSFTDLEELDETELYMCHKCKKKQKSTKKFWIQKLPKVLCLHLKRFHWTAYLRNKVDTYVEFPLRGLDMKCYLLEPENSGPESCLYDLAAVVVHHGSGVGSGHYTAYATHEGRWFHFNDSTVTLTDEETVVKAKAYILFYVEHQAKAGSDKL

[4] = molecular target: USP16 (Homo sapiens, UniProt Q9Y5T5); assay: SILAC-MS competitive activity profiling (biotin-Ub-PA/VME) in HeLa lysate, […] PEITC; type: cell-based
[5] = molecular target: T4, UCH37 (Homo sapiens, UniProt Q9Y5K5); assay: d5/d0-NEM differential cysteine labeling LC-MS/MS on recombinant UCH37/ADRM1; also Ub-Rho110MP hydrolysis inhibition and activity-probe competition; type: binding
T4 construct: gene UCHL5; Human UCH37 (isoform 1) with an N-terminal 6x histidine tag; with ADRM1 (RPN13)
T4 sequence (Q16186 2-407): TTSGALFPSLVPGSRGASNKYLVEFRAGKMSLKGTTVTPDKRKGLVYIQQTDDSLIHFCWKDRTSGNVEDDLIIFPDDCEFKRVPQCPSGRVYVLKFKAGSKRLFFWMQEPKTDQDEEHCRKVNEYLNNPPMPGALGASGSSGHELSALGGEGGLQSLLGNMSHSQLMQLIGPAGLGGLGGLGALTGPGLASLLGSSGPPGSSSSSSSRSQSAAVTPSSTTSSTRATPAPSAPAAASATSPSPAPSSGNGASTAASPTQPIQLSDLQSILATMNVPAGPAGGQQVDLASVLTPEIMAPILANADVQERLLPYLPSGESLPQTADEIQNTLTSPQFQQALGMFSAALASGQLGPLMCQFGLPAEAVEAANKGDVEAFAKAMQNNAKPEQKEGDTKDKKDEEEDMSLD
T4 sequence (Q9Y5K5 whole entry, canonical isoform): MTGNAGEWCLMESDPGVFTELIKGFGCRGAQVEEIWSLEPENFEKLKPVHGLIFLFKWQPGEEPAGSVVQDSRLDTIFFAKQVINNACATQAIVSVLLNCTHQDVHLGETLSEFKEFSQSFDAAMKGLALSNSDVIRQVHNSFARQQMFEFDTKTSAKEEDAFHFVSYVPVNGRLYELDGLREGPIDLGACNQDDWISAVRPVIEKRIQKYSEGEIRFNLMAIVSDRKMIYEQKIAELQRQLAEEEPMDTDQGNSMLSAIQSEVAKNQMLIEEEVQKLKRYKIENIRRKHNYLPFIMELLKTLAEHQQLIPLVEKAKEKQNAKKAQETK

T1 sequence (O94782 whole entry): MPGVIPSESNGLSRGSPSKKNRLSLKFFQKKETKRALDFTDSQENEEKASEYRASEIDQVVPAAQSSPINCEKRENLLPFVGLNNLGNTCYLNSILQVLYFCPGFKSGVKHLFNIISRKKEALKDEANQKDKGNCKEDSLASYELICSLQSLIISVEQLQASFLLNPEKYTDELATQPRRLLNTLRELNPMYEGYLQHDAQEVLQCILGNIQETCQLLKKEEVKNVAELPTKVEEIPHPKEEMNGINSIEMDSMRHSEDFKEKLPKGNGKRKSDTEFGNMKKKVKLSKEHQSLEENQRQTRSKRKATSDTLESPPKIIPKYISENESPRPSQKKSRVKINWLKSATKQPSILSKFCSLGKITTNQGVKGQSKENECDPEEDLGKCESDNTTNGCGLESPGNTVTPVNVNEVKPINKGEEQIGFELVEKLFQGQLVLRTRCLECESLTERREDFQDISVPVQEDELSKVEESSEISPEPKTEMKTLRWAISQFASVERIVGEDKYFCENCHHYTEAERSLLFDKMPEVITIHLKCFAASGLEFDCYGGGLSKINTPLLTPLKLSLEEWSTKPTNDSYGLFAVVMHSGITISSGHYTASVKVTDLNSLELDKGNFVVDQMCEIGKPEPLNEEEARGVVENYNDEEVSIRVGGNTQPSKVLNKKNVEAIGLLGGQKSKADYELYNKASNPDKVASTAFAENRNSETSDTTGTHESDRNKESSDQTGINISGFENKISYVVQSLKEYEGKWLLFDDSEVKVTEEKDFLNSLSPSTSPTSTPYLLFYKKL
T1 sequence (Q8TAF3 whole entry partner): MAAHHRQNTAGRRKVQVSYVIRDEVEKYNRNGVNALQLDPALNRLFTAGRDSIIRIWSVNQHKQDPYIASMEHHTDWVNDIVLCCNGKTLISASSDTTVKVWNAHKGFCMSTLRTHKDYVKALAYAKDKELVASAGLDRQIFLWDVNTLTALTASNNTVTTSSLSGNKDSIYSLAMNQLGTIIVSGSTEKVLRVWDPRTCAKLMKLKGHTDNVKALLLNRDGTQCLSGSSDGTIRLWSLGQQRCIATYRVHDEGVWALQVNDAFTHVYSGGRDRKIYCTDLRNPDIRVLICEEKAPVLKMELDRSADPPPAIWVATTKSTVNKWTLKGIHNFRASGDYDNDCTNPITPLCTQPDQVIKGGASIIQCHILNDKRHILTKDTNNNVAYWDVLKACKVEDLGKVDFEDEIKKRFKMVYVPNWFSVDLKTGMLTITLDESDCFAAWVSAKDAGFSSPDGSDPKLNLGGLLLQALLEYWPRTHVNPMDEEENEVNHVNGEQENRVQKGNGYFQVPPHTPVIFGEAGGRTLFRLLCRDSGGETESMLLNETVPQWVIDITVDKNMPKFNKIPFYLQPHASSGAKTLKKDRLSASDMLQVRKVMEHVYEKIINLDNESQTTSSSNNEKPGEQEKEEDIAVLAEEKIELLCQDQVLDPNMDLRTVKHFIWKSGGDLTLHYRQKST
Chain of USP16 (Q9Y5T5 whole entry): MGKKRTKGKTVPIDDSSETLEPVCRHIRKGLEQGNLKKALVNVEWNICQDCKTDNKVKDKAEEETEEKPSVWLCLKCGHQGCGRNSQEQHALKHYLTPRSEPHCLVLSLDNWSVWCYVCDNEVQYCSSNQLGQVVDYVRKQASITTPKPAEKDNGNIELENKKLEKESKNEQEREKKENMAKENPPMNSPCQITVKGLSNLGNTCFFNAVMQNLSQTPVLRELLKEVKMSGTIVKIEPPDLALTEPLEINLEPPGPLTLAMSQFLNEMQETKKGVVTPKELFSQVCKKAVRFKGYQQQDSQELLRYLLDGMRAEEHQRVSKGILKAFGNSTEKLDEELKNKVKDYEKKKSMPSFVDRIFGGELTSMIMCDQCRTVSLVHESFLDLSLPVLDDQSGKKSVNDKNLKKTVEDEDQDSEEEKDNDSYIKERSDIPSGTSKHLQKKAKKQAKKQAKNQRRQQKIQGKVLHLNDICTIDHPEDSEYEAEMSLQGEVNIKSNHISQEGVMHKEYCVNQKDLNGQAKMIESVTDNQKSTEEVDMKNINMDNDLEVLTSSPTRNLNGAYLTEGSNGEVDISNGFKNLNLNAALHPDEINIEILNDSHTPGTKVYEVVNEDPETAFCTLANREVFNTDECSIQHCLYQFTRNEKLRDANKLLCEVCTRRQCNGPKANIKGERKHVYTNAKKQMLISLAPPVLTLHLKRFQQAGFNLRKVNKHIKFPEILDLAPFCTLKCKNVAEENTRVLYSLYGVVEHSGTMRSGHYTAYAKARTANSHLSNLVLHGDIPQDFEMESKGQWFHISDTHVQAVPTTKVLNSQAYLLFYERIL

Structure (SMILES): S=C=NCCc1ccccc1 [PEITC]
- K63-linked di-ubiquitin gel-based hydrolysis assay with purified USP1/UAF1; also [1]: hydrolysis of di-Ub by purified USP1 in complex with its activator UAF1 ... Dose dependent inhibition was observed
- SILAC-MS competitive activity profiling (biotin-Ub-PA/VME) in HeLa lysate, 75 μM [2]: the inhibition of VCPIP1 by PEITC is the first report of inhibition of an OTU domain DUB
- Biotin-Ub-PA/VME activity-probe labeling with immunoblot after treatment of HEK2 [3]: inhibition of USP3 by PEITC in living cells was confirmed by observing the molecular shift upon probe labeling
- SILAC-MS competitive activity profiling (biotin-Ub-PA/VME) in HeLa lysate, 75 μM [4]: USP1, USP3, USP16, USP48 and VCPIP1 were only identified in the absence of PEITC
- d5/d0-NEM differential cysteine labeling LC-MS/MS on recombinant UCH37/ADRM1; al [5]: increase in d0-NEM labeling at Cys88, indicating that the active-site cysteine is the site of PEITC modification
